Assay results from patent publication US9827277B2, “Sulphated polysaccharide composition” (UNIVERSITÉ BLAISE PASCAL—CLERMONT II, priority 2012, dated 2017).

What was measured:
[1] = system: HFF (Human Foreskin Fibroblast) cells; test: Cytotoxicity test (sulforhodamine B) on HFF cells; assay type: cell-based
Protocol: Culturing of HFF (Human Foreskin Fibroblast Cells in 96-Well Plate From a 75 cm^2 flask of HFF cells at confluence, the culture medium was removed, and then 2 mL of trypsin-EDTA (0.025% trypsin and 0.01% EDTA—Ethylenediaminetetraacetic acid) was added (at 37° C.). The flask was then briefly rinsed and the trypsin was removed. 2 mL of trypsin-EDTA was subsequently added and the flask was incubated for 5 minutes in an oven at 37° C.
5 ml of culture medium (minimal essential medium—MEM (PARA Laboratories GmbH)+Glutamine (2 mM)+Fungizone (2.5 μg/mL)+Penicillin (100 units/mL)+Streptomycin (100 μg/mL)+decomplemented Foetal Calf Serum 15%) was added and then the flask was rinsed with a pipette. The medium and cells were recovered in a tube. Counting on the Malassez counting chamber was then performed.
The cells were subsequently centrifuged at 200 g, for 7 minutes, and then the supernatant was removed. The pellet was taken up in the culture medium in a manner so as to obtain 10^5 cells/mL.
200 μL of this suspension per well was distributed, while leaving empty the wells of columns 1 and 12 and rows A and H. The wells that were left empty were filled with 200 μL of culture medium in order to prevent evaporation.
When the cells had reached confluence in the wells (about 48 hours), the medium was aspirated by making use of a vacuum extractor pump and then 200 μL of culture medium containing the various polysaccharides to be tested (the latter are tested at 50, 100, and 200 μg/mL) was added.
Each concentration was tested in triplicate. […]
The proteins were solubilised by using 200 μL of Tris-Base (10 mM) for 5 minutes on a plate with stirring at ambient temperature. The OD (Optical Density) at 550 nm was measured by making use of a microplate reader (Multiskan FC357, Thermo Scientific).
The mean of the OD and the standard deviation have been calculated for each sample tested in order to arrive at a conclusion with respect to the toxicity of the products.

[2] = system: Nosema ceranae; test: Inhibitory activity in vivo on Nosema in honey bees
Protocol: The results presented here have been obtained from the summer honey bees.
After recovering one brood chamber frame (or more as per the needs in honey bees) from the apiary by means of a glass frame holder, the latter was placed in an oven at 34° C. for a period of 24 to 48 hours in a manner so as to allow the honey bees to emerge from their cells. Then, the young honey bees were retrieved from the frame by making use of a pair of entomologist's forceps and placed in the beekeeping boxes (supers) on the basis of 50 honey bees/box. ⅙^th of a tube stick of PseudoQueen (Contech Enterprises, Canada) was added in each of the beekeeping boxes.
Each polysaccharide treatment was carried out in triplicate (three boxes/treatment). Each test operation contained a “healthy honey bees” control (honey bees not infected and not treated), an “infected honey bees” control (honey bees infected experimentally and not treated) and a fumagillin control; with these controls also being in triplicate. […]
Over the course of the post-Infection phase (a time period of 20 days), the dead honey bees were counted and removed on a daily basis from each of the boxes in order to track and monitor mortality. […]

| SMILES | Conclusion ([1]; HFF cells, culture medium containing 20% of DMSO, 96 hours) | Viability (%) ([1]; HFF cells, positive control: culture medium containing 20% of DMSO, 96 hours of incubation) | Viability (%) ([1]; human, 96 h, 1 μg/mL) | Mortality at 20 days post-infection (%) ([2]; honey bees infected with 125,000 N. ceranae spores, syrup supplemented with 1 μg/mL fumagillin, fed 3 days before and 20 days after infection) | Change in parasite load (decrease) ([2]; spore count at 20 days vs infected honey bees control, syrup with 1 μg/mL fumagillin) |
| --- | --- | --- | --- | --- | --- |
| C[S+](C)[O-] [DMSO Positive Control, DMSO] | Cytotoxic: control validated | 6.8 +/− 1.4% | – | – | – |
| CO[C@@H]1[C@H](OC(=O)/C=C/C=C/C=C/C=C/C(=O)O)CC[C@]2(CO2)[C@H]1[C@@]1(C)O[C@@H]1CC=C(C)C [Fumagillin Control, fumagillin] | – | – | 99.1 +/− 12.2% | 25.9 +/− 16.7% | Decrease of 63.4% |
